Data: patent publication US8519124B2, “Chemokine receptor antagonists and use thereof” (Ono Pharmaceutical Co., Ltd., priority 2005, dated 2013)

Assays:
[1] = tested on: CHL/IU (cell line derived from a Chinese hamster lung); assay: Phospholipidosis detecting system using fluorescent labeling phospholipid analog (NBD-PE); assay type: cell-based; conditions: compound dose: 50 μM; for The rate of increase of phopholipid accumulation (%): CHL/IU cells, about 24 hours, relative to NBD-PE control
Protocol: Investigation with a Phospholipidosis Detecting System Using Fluorescent Labeling Phospholipidosis Analog (i) Phospholipid Accumulation Measurement 100 μL/well as required (1 dose 2 wells) of cell suspension of CHL/IU (cell line derived from a Chinese hamster lung) adjusted by MEM (7×10^4 cells/mL) adjusted by MEM (minimum essential medium) culture medium was added to a 96-well plate (96-well clear-bottom plate), and cultured for about 24 hours. After culture, the supernatant of the 96-well plate was removed, and the 100 μL/well compounds of each concentration dissolved and suspended in a minimum essential medium (MEM) including 25 μmol/L nitrobenzoxadiazole dipalmitoyl phosphatidylethanolamine (NBD-PE) (hereinafter abbreviated as a NPD-PE medium) were added and treated for about 24 hours. The treatment concentrations of each compound were set to be 6.25, 12.5, 25, 50 and 100 μmol/L. The positive control substance was set to be amiodarone hydrochloride, and the treatment concentrations were set to be 1.25, 2.5, 5, 10 and 20 μmol/L. In addition, 5 untreated controls (only MEM) and 5 NBD-PE controls (made by means of adding a 1/100 amount of DMSO to the NBD-PE culture medium) were set per compound, and cultured in the same manner. After finishing the culture, the cultures were washed twice with Phosphate buffered saline (hereinafter abbreviated as PBS) (−) 100 μL/well, and the MEM (100 μL) was added to all of the treatment wells including 2 empty wells for WST-1 background controls and cultured for about a half hour. The fluorescence intensities of each well were measured by using a microplate reader (manufactured by Molecular Devices Inc., SPECTRA max M2; the excitation wavelength 485 nm/the fluorescence wavelength 535 nm). (ii) Analysis Using the average values of each dose×2 wells, a phospholipid increase rate (%) to the NBD-PE control was calculated by using the following calculating formula: Phospholipid increase rate (%)=100×{(test article fluorescence intensity−untreated control fluorescence intensity)/(NBD-PE control fluorescence intensity−untreated control fluorescence intensity (iii) Cytotoxicity Assay The 96-well plate measured in the phospholipid accumulation measurement was measured by means of Plate Reader (manufactured by Molecular Devices Inc., SPECTRA max M2) with the main wavelength of 450 nm and the correct wavelength of 690 nm to calculate a Pre value. An amount of 5 μL/well of Premix WS T-1 was added to each of the 96 hole plates by which Pre measurement was conducted. After culture for 2 to 4 hours, the 96-well plate was measured as well as the Pre measurement to calculate an Aft value. Then, the background control value was subtracted from the each measured value. A value which was calculated by subtracting the Pre value from the Aft value was used, then the cell growth rate (%) was calculated by using the following calculating formula: Cell growth rate (%)=100×{(test article OD)/(NBD-PE control OD)} (iv) Determination A test dose that indicated value of equal to or more than 25% of the maximum phospholipid accumulation increase rate of amiodarone which was the positive control was determined as positive. In addition, the dose whose cell growth rate was equal to or less than 50% in the cytotoxicity assay was not used for determination of existence or nonexistence of a phospholipidosis inductive effect.

CXCR4 = molecular target: T1, CXCR4 (Homo sapiens, UniProt P61073); assay: Study for inhibition of binding human SDF-1 to CEM cells (125I-SDF-1); conditions: 125I-SDF-1 binding to CEM cells
T1 construct: a human T cell strain in which CXCR4 is known to be expressed; endogenous in cells; host or cells: CEM cells (human T cell strain)
From the text: Specifically, as a system of screening a compound that inhibits the binding between SDF-1 and CXCR4, for example a system of measuring the binding between iodine-labeled SDF-1 and a human T cell strain in which CXCR4 is known to be expressed is operable. The identical idea is possible since macrophage (R5) HIV and RANTES, MIP-1α, and MIP-1β all bind to CCR5.
Study for Inhibition of Binding Human SDF-1 to CEM Cells
To human T cell strain CEM cells in a binding buffer (containing HEPES and BSA), the test compound and ^125I-SDF-1 (NEN) were added and the mixture was incubated at 4° C. for 60 minutes. The reacted CEM cells were rapidly filtrated with a GF/B membrane filter plate (Packard) to adsorb. The plate was washed with PBS three times and then dried. Microscint+20 (Packard) was added thereto. An amount of the radioactivity bound to the CEM cells was measured using Top Count (Packard) and inhibition (%) of the test compound was calculated according to the following equation: Inhibition={(Et−Ea)/(Et−Ec)}×100
Et: amount of radioactivity when the test compound is not added,
Ec: amount of radioactivity when non-radioactive SDF-1 (Pepro Tech) is added in an amount of 1000 times as much as ^125I-SDF-1 as a test compound, and
Ea: amount of radioactivity when the test compound is added.

T1 sequence (P61073 whole entry): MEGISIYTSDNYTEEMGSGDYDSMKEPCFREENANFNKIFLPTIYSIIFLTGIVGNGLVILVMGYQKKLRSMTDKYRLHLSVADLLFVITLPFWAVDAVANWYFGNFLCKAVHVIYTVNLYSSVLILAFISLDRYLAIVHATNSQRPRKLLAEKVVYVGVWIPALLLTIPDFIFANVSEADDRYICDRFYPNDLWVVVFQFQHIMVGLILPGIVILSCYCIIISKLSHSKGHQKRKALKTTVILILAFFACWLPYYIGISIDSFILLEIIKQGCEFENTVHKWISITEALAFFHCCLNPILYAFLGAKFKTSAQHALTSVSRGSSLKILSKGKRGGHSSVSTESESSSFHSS

Row | IC50 (CXCR4) | SMILES | Judgement (phospholipidosis inductive effect) [1] | The rate of increase of phopholipid accumulation (%) [1]
1 | – | CCC(CC)N1CCC2(CCN(C(=O)c3ccc(CN(Cc4ncc[nH]4)Cc4nccn4C)cc3)C2)CC1 [Example 40 (72), 1-(4-{[8-(1-ethylpropyl)-2,8-diazaspiro[4.5]dec-2-yl]carbonyl}phenyl)-N-(1H-imidazol-2-ylmethyl)-N-[(1-methyl-1H-imidazol-2-yl)methyl]methanamine] | negative | 16%
2 | 15 nM | CC(C)CN1CCC2(CCN(Cc3ccc(C(=O)N(Cc4ncc[nH]4)Cc4ncc[nH]4)cc3)CC2)C1 [Example 8 (113), N,N-bis(1H-imidazol-2-ylmethyl)-4-[(2-isobutyl-2,8-diazaspiro[4.5]dec-8-yl)methyl]benzamide] | negative | 10%
3 | – | CC(C)(C)CN1CCC2(CC1)CCN(C(=O)Cc1ccc(CN(Cc3ncc[nH]3)Cc3ncc[nH]3)cc1)C2 [Example 40 (68), 1-(4-{2-[8-(2,2-dimethylpropyl)-2,8-diazaspiro[4.5]dec-2-yl]-2-oxoethyl}phenyl)-N,N-bis(1H-imidazol-2-ylmethyl)methanamine] | negative | 18%
4 | – | O=C(CC(=O)N1CCC2(CCN(C3CCCCC3)CC2)C1)N1CCC(N(Cc2ncc[nH]2)Cc2ncc[nH]2)CC1 [Example 65 (4), 1-[3-(8-cyclohexyl-2,8-diazaspiro[4.5]dec-2-yl)-3-oxopropanoyl]-N,N-bis(1H-imidazol-2-ylmethyl)-4-piperidinamine] | negative | 12%
